In BindingDB's records for doi:10.1002/cbic.201000487 (Eberhard Karls University of Tuebingen, 2010):
pIC50: −log10 of the molar value.

Legend:
[1] = molecular target: Mitogen-activated protein kinase 14 (Homo sapiens, UniProt Q16539); experiment: Kinase Assay; details: 37 °C
Protocol: (§1) The p38alpha reaction was carried out by using kinase (12ng per well), ATP (100uM) and incubated for 60 min at 37 C. For the JNK3 assay, kinase (10ng per well), ATP (1uM) and 45 min of incubation time at 37 C were used.

[2] = molecular target: Mitogen-activated protein kinase 10 (Homo sapiens, UniProt P53779); experiment: Kinase Assay; details: 37 °C
Protocol: as §1

Sequence of Mitogen-activated protein kinase 14 (Q16539 whole entry): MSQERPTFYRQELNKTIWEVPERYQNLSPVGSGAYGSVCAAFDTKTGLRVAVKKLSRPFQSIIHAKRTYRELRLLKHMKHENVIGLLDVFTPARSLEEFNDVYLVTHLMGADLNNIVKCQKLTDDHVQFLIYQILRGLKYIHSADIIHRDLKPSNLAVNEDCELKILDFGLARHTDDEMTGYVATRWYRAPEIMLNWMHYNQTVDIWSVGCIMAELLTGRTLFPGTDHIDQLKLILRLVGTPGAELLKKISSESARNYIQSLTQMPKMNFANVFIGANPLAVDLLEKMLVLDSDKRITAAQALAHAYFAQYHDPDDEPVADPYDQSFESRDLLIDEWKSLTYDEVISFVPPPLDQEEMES
Sequence of Mitogen-activated protein kinase 10 (P53779 whole entry): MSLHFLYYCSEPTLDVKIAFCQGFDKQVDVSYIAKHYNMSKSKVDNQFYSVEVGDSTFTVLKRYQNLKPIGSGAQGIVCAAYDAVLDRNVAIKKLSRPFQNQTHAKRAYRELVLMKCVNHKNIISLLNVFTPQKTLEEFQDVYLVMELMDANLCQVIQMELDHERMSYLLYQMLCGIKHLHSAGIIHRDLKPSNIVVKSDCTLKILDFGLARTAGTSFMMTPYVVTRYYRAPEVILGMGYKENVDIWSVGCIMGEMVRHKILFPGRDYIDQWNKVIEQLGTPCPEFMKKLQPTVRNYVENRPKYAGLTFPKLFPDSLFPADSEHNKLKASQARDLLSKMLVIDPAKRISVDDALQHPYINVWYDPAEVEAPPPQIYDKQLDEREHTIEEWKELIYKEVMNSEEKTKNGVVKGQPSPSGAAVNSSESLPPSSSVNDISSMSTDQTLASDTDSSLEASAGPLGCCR

Row | pIC50 [1] | pIC50 [2] | Compound
1 | 4.49 |  | COc1ccc(-c2cc(=O)c3c(O)c(OC)c(O)cc3o2)cc1 [4,5-Dihydroxy-6-methoxy-2-(4-methoxy-phenyl)-chromen-7-one]
2 | 4.94 | 4.57 | O=c1c(O)c(-c2ccc(O)cc2O)oc2cc(O)cc(O)c12 [2-(2,4-dihydroxyphenyl)-3,5,7-trihydroxychromen-4-one]
3 | 4.18 |  | C[C@@H]1O[C@@H](OC[C@H]2O[C@@H](Oc3c(-c4ccc(O)c(O)c4)oc4cc(O)cc(O)c4c3=O)[C@H](O)[C@@H](O)[C@@H]2O)[C@H](O)[C@H](O)[C@H]1O [3-Rhamnoglucosylquercetin]
4 | 4.06 | 5.61 | O=c1cc(-c2ccc(O)c(O)c2)oc2cc(O[C@@H]3O[C@H](CO)[C@@H](O)[C@H](O)[C@H]3O)cc(O)c12
5 | 4.17 | 4.05 | Oc1cc(O)c2c(c1)O[C@H](c1ccc(O)c(O)c1)[C@H](O)C2
6 | 4.91 | 5.11 | COc1cc(O)c2c(=O)c(OC)c(-c3ccc(O)c(O)c3)oc2c1 [3',4',5-trihydroxy-3,7-dimethoxyflavone]
7 | 4.48 |  | COc1cc(O)c2c(=O)cc(-c3ccc(OC)c(OC)c3)oc2c1 [Luteolin-7,3',4'-trimethylether]
8 | 4.72 | 4.72 | COc1cc(-c2cc(=O)c3c(O)c(OC)c(O)cc3o2)ccc1O [Jaceosidin]
9 | 5.79 | 5.65 | O=c1c(O)c(-c2cc(O)c(O)c(O)c2)oc2cc(O)cc(O)c12
10 | 4.29 | 4.66 | O=c1cc(O)cc2oc(-c3ccc(O)c(O)c3)c(O[C@@H]3O[C@H](CO)[C@@H](O)[C@H](O)[C@H]3O)c(O)c1-2 [Quercetin 3-O-beta-D-glucoside]
11 | 4.74 | 4.72 | O=c1c(O)c(-c2ccc(O)cc2)oc2cc(O)cc(O)c12
12 | 4.65 | 4.80 | COc1c(O)cc2oc(-c3ccc(O)c(O)c3)cc(=O)c2c1O
13 | 4.84 | 5.66 | O=c1cc(-c2ccc(O)cc2)oc2cc(O)cc(O)c12 [Naringenin, 18]
14 | 4.40 | 4.93 | O=c1cc(-c2ccccc2)oc2cc(O)cc(O)c12 [5,7-dihydroxy-2-phenyl-4H-chromen-4-one]
15 | 4.21 |  | O=c1c(-c2ccc(O)cc2)coc2cc(O)cc(O)c12 [Prunetol]
16 | 4.48 | 4.28 | COc1ccc(-c2oc3cc(O)cc(O)c3c(=O)c2O)cc1 [Kaempferide]
17 | 4.30 | 5.24 | COc1ccc(-c2cc(=O)c3c(O)cc(O)cc3o2)cc1 [5,7-dihydroxy-2-(4-methoxyphenyl)-4H-chromen-4-one]
18 | 4.79 | 4.22 | COc1c(O)cc2oc(-c3ccc(O)c(O)c3)c(O)c(=O)c2c1O [Patuletin]
19 | 5.40 | 4.26 | COc1cc(O)c2c(=O)c(O)c(-c3ccc(OC)c(O)c3)oc2c1 [Kaempferol-7,4'-dimethylether]
20 | 4.26 |  | COc1ccc([C@@H]2CC(=O)c3c(O)cc(O)cc3O2)cc1O [(2S)-5,7-dihydroxy-2-(3-hydroxy-4-methoxyphenyl)-3,4-dihydro-2H-1-benzopyran-4-one]
21 | 5.57 | 5.59 | O=c1c(O)c(-c2ccc(O)c(O)c2)oc2cc(O)ccc12 [2-(3,4-dihydroxyphenyl)-3,7-dihydroxy-chromen-4-one]
22 | 4.56 |  | COc1ccc(-c2cc(=O)c3c(O)cc(OC)cc3o2)cc1 [5-hydroxy-7-methoxy-2-(4-methoxyphenyl)-4H-chromen-4-one]
23 | 4.62 | 4.79 | COc1ccc(-c2cc(=O)c3c(O)c(OC)c(O)c(OC)c3o2)cc1 [Nevadensin]
24 | 4.55 | 4.69 | C[C@@H]1O[C@@H](Oc2c(-c3ccc(O)c(O)c3)oc3cc(O)cc(=O)c-3c2O)[C@H](O)[C@H](O)[C@H]1O
25 | 4.76 | 4.65 | COc1c(O)cc2oc(-c3ccc(O)cc3)c(O)c(=O)c2c1O [6-methoxy kaempferol]
26 | 4.28 | 5.11 | COc1cc(O)c2c(=O)cc(-c3ccc(O)c(OC)c3)oc2c1 [Velutin]

Row | Compound | pIC50 [1] | pIC50 [2]
27 | O=c1cc(-c2ccc(O)c(O)c2)oc2c([C@@H]3O[C@H](CO)[C@@H](O)[C@H](O)[C@H]3O)c(O)cc(O)c12 [Luteolin 8-C-glucoside] | 4.25 | 4.42
28 | Oc1cc(O)c2c(c1)O[C@H](c1cc(O)c(O)c(O)c1)[C@@H](O)C2 [(+)-gallocatechin] | 5.45 | 5.28
29 | COc1c(O)cc2oc(-c3ccc(O)cc3)cc(=O)c2c1O [5,7-dihydroxy-2-(4-hydroxyphenyl)-6-methoxy-4H-chromen-4-one] | 4.73 | 4.46
30 | COc1cc(-c2oc3cc(O)cc(O)c3c(=O)c2O)ccc1O | 4.70 | 5.20
31 | O=c1c(O)c(-c2ccc(O)c(O)c2)oc2cc(O)cc(O)c12 [2-(3,4-dihydroxyphenyl)-3,5,7-trihydroxy-chromone;hydrate] | 5.46 | 5.64
32 | O=c1cc(-c2ccc(O)c(O)c2)oc2cc(O)cc(O)c12 [2-(3,4-dihydroxyphenyl)-5,7-dihydroxy-4H-chromen-4-one] | 4.74 | 5.64
